From PubChem BioAssay (NCI) come the findings set out here.

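Compound exposure: 48 hours, 5 concentrations, 96-well plates. At the TGI there is no net growth.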 Where a SMILES comes first, the peptide text is derived from it. [ ]: non-standard residue; d: D form. The star is where a group is joined. ξ: configuration not given here. ξF = NC(Cc1ccccc1)C(=O)O; Cbz = O=C(OCc1ccccc1)*; Aib = CC(C)(N)C(=O)O; NHNH2 = NN*

Some test systems named below: MALME-3M melanoma; OVCAR-3 ovarian; OVCAR-4 ovarian; MDA-MB-435; UACC-257 melanoma; HOP-92 NSCLC; EKVX NSCLC; SK-MEL-2 melanoma; NCI-H460 lung; CAKI-1 renal; HOP-62 NSCLC; COLO 205 colon; NCI/ADR-RES ovarian; LOX IMVI melanoma; HL-60(TB) leukemia.
Experiment in all cases: growth of human tumour cells (NCI), 48 h

With `CN(C)CCCN1C(=S)N(CCCN(C)C)c2c3ccccc3nc3c([N+](=O)[O-])ccc1c23`, the TGI in the test with MALME-3M melanoma turned out to be 6.69 µM; in the test on OVCAR-3 ovarian, 24.4 µM; in the test with OVCAR-4 ovarian it was 27.9 µM; with MDA-MB-435, 23.7 µM; with UACC-257 melanoma, 20.3 µM; in the test on HOP-92 NSCLC, 19.5 µM. The TGI in the test with EKVX NSCLC was 25.1 µM; in the test on SK-MEL-2 melanoma, 34.8 µM; with NCI-H460 lung, 18 µM; in the test with CAKI-1 renal it was 19.7 µM; in the test with HOP-62 NSCLC, 47 µM; in the test on COLO 205 colon it was 4.8 µM. The TGI is 27.9 µM in the test with NCI/ADR-RES ovarian and 17.9 µM in the test with LOX IMVI melanoma.

Consider `CC(C)OP(=O)(OC(C)C)/C(Cl)=N/Nc1ccc([N+](=O)[O-])cc1`, for which the TGI in the test on MALME-3M melanoma, in the test on OVCAR-3 ovarian, in the test on HL-60(TB) leukemia, with OVCAR-4 ovarian, in the test with UACC-257 melanoma and in the test with HOP-92 NSCLC was above 100 µM each time. Also, the TGI in the test with EKVX NSCLC, in the test on SK-MEL-2 melanoma, with NCI-H460 lung, with CAKI-1 renal, in the test on HOP-62 NSCLC and with COLO 205 colon was above 100 µM in each case. Besides, in the test with LOX IMVI melanoma, the TGI is above 100 µM.

Take `N#Cc1nc(CCN2C(=O)c3ccccc3C2=O)oc1N`: the TGI with MALME-3M melanoma, in the test with OVCAR-3 ovarian, in the test on OVCAR-4 ovarian, in the test on MDA-MB-435, with UACC-257 melanoma and with EKVX NSCLC was above 100 µM in each case. In addition, the TGI in the test with SK-MEL-2 melanoma, with NCI-H460 lung, in the test with CAKI-1 renal, in the test on HOP-62 NSCLC, in the test on COLO 205 colon and in the test on NCI/ADR-RES ovarian was above 100 µM each time. Moreover, the TGI in the test on LOX IMVI melanoma is above 100 µM.

Regarding `COC(=O)C1CCC(=O)N1CN(C(C)=O)c1ccccc1Cl` (stereo not drawn), the TGI with MALME-3M melanoma, with OVCAR-3 ovarian, in the test on OVCAR-4 ovarian, in the test on MDA-MB-435, in the test on UACC-257 melanoma and in the test on HOP-92 NSCLC was above 100 µM throughout. Also, the TGI in the test on EKVX NSCLC, in the test on SK-MEL-2 melanoma, in the test on NCI-H460 lung, in the test with CAKI-1 renal, in the test with HOP-62 NSCLC and in the test with COLO 205 colon was above 100 µM each time. In addition, the TGI in the test with NCI/ADR-RES ovarian and in the test with LOX IMVI melanoma was above 100 µM each time.

`S=c1[nH]nc(CNc2ccc(-c3n[nH]c(=S)n3-c3ccc(Cl)cc3)cc2)n1-c1ccc(Cl)cc1`: the TGI in the test on MALME-3M melanoma was 59.9 µM; in the test with OVCAR-4 ovarian it was above 100 µM; in the test on MDA-MB-435 it was above 100 µM; with UACC-257 melanoma, above 100 µM; in the test with HOP-92 NSCLC it was 59.1 µM; with EKVX NSCLC it was above 100 µM. The TGI in the test on SK-MEL-2 melanoma is 57.7 µM; in the test with NCI-H460 lung, above 100 µM; with CAKI-1 renal it was 40.7 µM; with HOP-62 NSCLC, 36.6 µM; in the test with COLO 205 colon, 38.9 µM; in the test on NCI/ADR-RES ovarian, above 100 µM.

On to `O=c1[nH]c(=O)n(COCc2ccccc2)c2ccsc12`, for which the TGI in the test on MALME-3M melanoma, with OVCAR-4 ovarian, in the test with MDA-MB-435, with UACC-257 melanoma, in the test on HOP-92 NSCLC and in the test on EKVX NSCLC was above 100 µM throughout. For the same compound, the TGI in the test with SK-MEL-2 melanoma, in the test on NCI-H460 lung, in the test on CAKI-1 renal, with HOP-62 NSCLC, in the test with COLO 205 colon and in the test on NCI/ADR-RES ovarian was above 100 µM in each case. The compound also came in with a TGI in the test with LOX IMVI melanoma above 100 µM.

As for `O=C1C[C@H](c2ccccc2)O[C@@H](c2ccccc2)C1`, the TGI with MALME-3M melanoma, with OVCAR-3 ovarian, with OVCAR-4 ovarian, in the test on MDA-MB-435, in the test on UACC-257 melanoma and in the test with HOP-92 NSCLC was above 100 µM each time. Further, the TGI in the test with EKVX NSCLC, in the test on SK-MEL-2 melanoma, with NCI-H460 lung, in the test with CAKI-1 renal, with HOP-62 NSCLC and in the test on COLO 205 colon was above 100 µM each time. Besides, the TGI with NCI/ADR-RES ovarian and in the test with LOX IMVI melanoma was above 100 µM throughout.

For `CC(C)(NC(=O)OCc1ccccc1)C(=O)NC(Cc1ccccc1)C(=O)NN` (stereo not drawn) (Cbz-[Aib]-[ξF]-NHNH2), the TGI with MALME-3M melanoma, with OVCAR-3 ovarian, in the test on OVCAR-4 ovarian, in the test on MDA-MB-435, with UACC-257 melanoma and in the test with HOP-92 NSCLC was above 100 µM throughout. Moreover, the TGI in the test with EKVX NSCLC, in the test on SK-MEL-2 melanoma, with NCI-H460 lung, in the test with CAKI-1 renal, in the test with HOP-62 NSCLC and with COLO 205 colon was above 100 µM in each case. Besides, the TGI in the test on NCI/ADR-RES ovarian and in the test with LOX IMVI melanoma was above 100 µM in each case.

Take `CC(C)(O)/C=C\P(=O)(O)O`: the TGI with MALME-3M melanoma, in the test on OVCAR-3 ovarian, with OVCAR-4 ovarian, with MDA-MB-435, in the test with UACC-257 melanoma and in the test on HOP-92 NSCLC was above 100 µM in each case. The TGI in the test on EKVX NSCLC, with SK-MEL-2 melanoma, with NCI-H460 lung, with CAKI-1 renal, in the test with HOP-62 NSCLC and in the test with COLO 205 colon was above 100 µM each time. Besides, the TGI with NCI/ADR-RES ovarian and in the test with LOX IMVI melanoma was above 100 µM throughout.

As for `CC1(C)O[C@@H]([C@H](O)CO)[C@H](O)[C@@H](C2SCCCS2)O1`, the TGI in the test with OVCAR-3 ovarian, in the test on OVCAR-4 ovarian, with MDA-MB-435, in the test on UACC-257 melanoma, with HOP-92 NSCLC and in the test with EKVX NSCLC was above 100 µM throughout. Also, the TGI in the test with SK-MEL-2 melanoma, with NCI-H460 lung, in the test on CAKI-1 renal, with HOP-62 NSCLC, in the test on COLO 205 colon and in the test with NCI/ADR-RES ovarian was above 100 µM throughout.
